Source: the supplement of paper PMC10307832

Legend:
Test in all cases: relative viability (nuclei count vs DMSO), 5 days (fraction); higher = more cells survive
Calu-6 = tested on: Calu-6
Summary of the method: (§1)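 Lung cancer cell lines, seeded in 1536-well plates, were treated the following day by pin tool with a single drug or with five library-drug doses (not always all listed) in √10 steps on top of a fixed anchor-drug dose. Cells were fixed and nuclei stained in one step after 5 days, and nuclei were counted. Relative viability is the nuclei count for treated wells divided by that for vehicle wells, reported as medians of duplicate plates.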

NCI-H1299 = tested on: NCI-H1299
Summary of the method: as §1

EBC-1 = tested on: EBC-1
Summary of the method: as §1

NCI-H1355 = tested on: NCI-H1355
Summary of the method: as §1

IA-LM = tested on: IA-LM
Summary of the method: as §1

NCI-H23 = tested on: NCI-H23
Summary of the method: as §1

NCI-H1993 = tested on: NCI-H1993
Summary of the method: as §1

NCI-H1703 = tested on: NCI-H1703
Summary of the method: as §1

NCI-H322M = tested on: NCI-H322M
Summary of the method: as §1

UMC-11 = tested on: UMC-11
Summary of the method: as §1

LCLC-97TM1 = tested on: LCLC-97TM1
Summary of the method: as §1

NCI-H596 = tested on: NCI-H596
Summary of the method: as §1

A549 = tested on: A549
Summary of the method: as §1

O=c1cc(N2CCOCC2)oc2c(-c3cccc4c3sc3ccccc34)cccc12 + CS(=O)(=O)CCNCc1ccc(-c2ccc3ncnc(Nc4ccc(OCc5cccc(F)c5)c(Cl)c4)c3c2)o1 [Lapatinib] (partner 2 µM)
relative viability (Calu-6; first compound 0.01 µM): 1.08 | relative viability (Calu-6; first compound 0.03162 µM): 1.11 | relative viability (Calu-6; first compound 0.1 µM): 1.17 | relative viability (Calu-6; first compound 0.3162 µM): 1.08 | relative viability (Calu-6; first compound 1 µM): 1.05 | relative viability (NCI-H1299; first compound 0.01 µM): 0.957 | relative viability (NCI-H1299; first compound 0.03162 µM): 0.957 | relative viability (NCI-H1299; first compound 0.1 µM): 0.969 | relative viability (NCI-H1299; first compound 0.3162 µM): 0.961 | relative viability (NCI-H1299; first compound 1 µM): 0.964 | relative viability (EBC-1; first compound 0.01 µM): 0.227 | relative viability (EBC-1; first compound 0.03162 µM): 0.207 | relative viability (EBC-1; first compound 0.1 µM): 0.246 | relative viability (EBC-1; first compound 0.3162 µM): 0.237 | relative viability (EBC-1; first compound 1 µM): 0.227 | relative viability (NCI-H1355; first compound 0.01 µM): 0.998 | relative viability (NCI-H1355; first compound 0.03162 µM): 1 | relative viability (NCI-H1355; first compound 0.3162 µM): 1.03 | relative viability (NCI-H1355; first compound 1 µM): 0.963 | relative viability (IA-LM; first compound 0.01 µM): 0.764 | relative viability (IA-LM; first compound 0.03162 µM): 0.582 | relative viability (IA-LM; first compound 0.1 µM): 0.663 | relative viability (IA-LM; first compound 0.3162 µM): 0.86 | relative viability (IA-LM; first compound 1 µM): 0.602 | relative viability (NCI-H23; first compound 0.01 µM): 0.992 | relative viability (NCI-H23; first compound 0.03162 µM): 1.09 | relative viability (NCI-H23; first compound 0.3162 µM): 1.1 | relative viability (NCI-H23; first compound 1 µM): 1.22 | relative viability (NCI-H1993; first compound 0.01 µM): 0.823 | relative viability (NCI-H1993; first compound 0.03162 µM): 0.911 | relative viability (NCI-H1993; first compound 0.1 µM): 0.813 | relative viability (NCI-H1993; first compound 0.3162 µM): 0.764 | relative viability (NCI-H1993; first compound 1 µM): 0.829 | relative viability (NCI-H1703; first compound 0.01 µM): 1.36 | relative viability (NCI-H1703; first compound 0.03162 µM): 0.815 | relative viability (NCI-H1703; first compound 0.1 µM): 1.27 | relative viability (NCI-H1703; first compound 0.3162 µM): 1.17 | relative viability (NCI-H1703; first compound 1 µM): 1.01 | relative viability (NCI-H322M; first compound 0.01 µM): 0.584 | relative viability (NCI-H322M; first compound 0.03162 µM): 0.6 | relative viability (NCI-H322M; first compound 0.3162 µM): 0.577 | relative viability (NCI-H322M; first compound 1 µM): 0.455 | relative viability (UMC-11; first compound 0.01 µM): 0.997 | relative viability (UMC-11; first compound 0.03162 µM): 1.03 | relative viability (UMC-11; first compound 0.1 µM): 1.17 | relative viability (UMC-11; first compound 0.3162 µM): 0.995 | relative viability (UMC-11; first compound 1 µM): 0.951 | relative viability (LCLC-97TM1; first compound 0.01 µM): 1.09 | relative viability (LCLC-97TM1; first compound 0.03162 µM): 1.57 | relative viability (LCLC-97TM1; first compound 0.3162 µM): 1.13 | relative viability (LCLC-97TM1; first compound 1 µM): 0.727 | relative viability (NCI-H596; first compound 0.01 µM): 1.11 | relative viability (NCI-H596; first compound 0.03162 µM): 1.16 | relative viability (NCI-H596; first compound 0.1 µM): 1.06 | relative viability (NCI-H596; first compound 0.3162 µM): 1.16 | relative viability (NCI-H596; first compound 1 µM): 1.16 | relative viability (A549; first compound 0.01 µM): 0.964 | relative viability (A549; first compound 0.03162 µM): 0.931 | relative viability (A549; first compound 0.1 µM): 0.997 | relative viability (A549; first compound 0.3162 µM): 0.979 | relative viability (A549; first compound 1 µM): 0.968

O=c1cc(-c2cccc3c2Sc2ccccc2S3)oc(N2CCOCC2)c1 + CC1(C)CCC(c2ccc(Cl)cc2)=C(CN2CCN(c3ccc(C(=O)NS(=O)(=O)c4ccc(N[C@H](CCN5CCOCC5)CSc5ccccc5)c(S(=O)(=O)C(F)(F)F)c4)cc3)CC2)C1 [Navitoclax] (partner 0.5 µM)
relative viability (Calu-6; first compound 0.08 µM): 0.818 | relative viability (Calu-6; first compound 0.253 µM): 0.765 | relative viability (Calu-6; first compound 0.8 µM): 0.968 | relative viability (Calu-6; first compound 2.53 µM): 0.725 | relative viability (Calu-6; first compound 8 µM): 0.858 | relative viability (NCI-H1299; first compound 0.08 µM): 1.08 | relative viability (NCI-H1299; first compound 0.253 µM): 1.08 | relative viability (NCI-H1299; first compound 0.8 µM): 1.04 | relative viability (NCI-H1299; first compound 2.53 µM): 1.04 | relative viability (NCI-H1299; first compound 8 µM): 1.04 | relative viability (EBC-1; first compound 0.08 µM): 0.401 | relative viability (EBC-1; first compound 0.253 µM): 0.376 | relative viability (EBC-1; first compound 0.8 µM): 0.401 | relative viability (EBC-1; first compound 2.53 µM): 0.362 | relative viability (EBC-1; first compound 8 µM): 0.335 | relative viability (NCI-H1355; first compound 0.08 µM): 0.982 | relative viability (NCI-H1355; first compound 0.253 µM): 1.06 | relative viability (NCI-H1355; first compound 0.8 µM): 0.847 | relative viability (NCI-H1355; first compound 2.53 µM): 0.942 | relative viability (NCI-H1355; first compound 8 µM): 0.685 | relative viability (IA-LM; first compound 0.08 µM): 0.847 | relative viability (IA-LM; first compound 0.253 µM): 1.06 | relative viability (IA-LM; first compound 0.8 µM): 0.815 | relative viability (IA-LM; first compound 2.53 µM): 0.856 | relative viability (IA-LM; first compound 8 µM): 0.963 | relative viability (NCI-H23; first compound 0.08 µM): 0.829 | relative viability (NCI-H23; first compound 0.253 µM): 1.01 | relative viability (NCI-H23; first compound 0.8 µM): 0.879 | relative viability (NCI-H23; first compound 2.53 µM): 0.725 | relative viability (NCI-H23; first compound 8 µM): 0.884 | relative viability (NCI-H1993; first compound 0.08 µM): 1.09 | relative viability (NCI-H1993; first compound 0.253 µM): 0.989 | relative viability (NCI-H1993; first compound 0.8 µM): 0.768 | relative viability (NCI-H1993; first compound 2.53 µM): 0.824 | relative viability (NCI-H1993; first compound 8 µM): 0.871 | relative viability (NCI-H1703; first compound 0.253 µM): 1.22 | relative viability (NCI-H1703; first compound 0.8 µM): 1.35 | relative viability (NCI-H1703; first compound 2.53 µM): 1.05 | relative viability (NCI-H1703; first compound 8 µM): 1.05 | relative viability (NCI-H322M; first compound 0.08 µM): 1.2 | relative viability (NCI-H322M; first compound 0.253 µM): 1.3 | relative viability (NCI-H322M; first compound 0.8 µM): 1.15 | relative viability (NCI-H322M; first compound 2.53 µM): 1.16 | relative viability (NCI-H322M; first compound 8 µM): 1.05 | relative viability (UMC-11; first compound 0.08 µM): 0.326 | relative viability (UMC-11; first compound 0.253 µM): 0.319 | relative viability (UMC-11; first compound 0.8 µM): 0.32 | relative viability (UMC-11; first compound 2.53 µM): 0.304 | relative viability (UMC-11; first compound 8 µM): 0.353 | relative viability (LCLC-97TM1; first compound 0.08 µM): 0.425 | relative viability (LCLC-97TM1; first compound 0.253 µM): 0.597 | relative viability (LCLC-97TM1; first compound 0.8 µM): 0.374 | relative viability (LCLC-97TM1; first compound 2.53 µM): 0.329 | relative viability (LCLC-97TM1; first compound 8 µM): 0.372 | relative viability (NCI-H596; first compound 0.08 µM): 0.843 | relative viability (NCI-H596; first compound 0.253 µM): 1.3 | relative viability (NCI-H596; first compound 0.8 µM): 1.09 | relative viability (NCI-H596; first compound 2.53 µM): 1.09 | relative viability (NCI-H596; first compound 8 µM): 1.14 | relative viability (A549; first compound 0.08 µM): 1.14 | relative viability (A549; first compound 0.253 µM): 1.51 | relative viability (A549; first compound 0.8 µM): 1.47 | relative viability (A549; first compound 2.53 µM): 1.13 | relative viability (A549; first compound 8 µM): 1.37
